Data taken from patent US6984493B1, “Method for examining the involvement of opioid peptides in prurtis” (Toray Industries, Inc., priority 2000, dated 2006).

Tested on: severe itching
Description: One capsule of a κ-opioid agonist 17-cyclopropylmethyl-3, 14β-dihydroxy-4,5α-epoxy-6β-(N-methyl-trans-3-(3-furyl)acrylamide) morphinan hydrochloride capsule (10 μg/body) was administered to each of the selected patients. […] To quantitatively determine the severity of itching, visual analogue scale (VAS) was employed, in which the severity of itching was determined on a straight line of 0 to 100 mm where no itching was rated as “0” and the supposable most severe itching was rated as “100”.

CN(C(=O)/C=C/c1ccoc1)[C@@H]1CC[C@@]2(O)[C@H]3Cc4ccc(O)c5c4[C@@]2(CCN3CC2CC2)[C@H]1O5.Cl (relative stereo) [17-cyclopropylmethyl-3, 14β-dihydroxy-4,5α-epoxy-6β-(N-methyl-trans-3-(3-furyl)acrylamide) morphinan hydrochloride]
visual analogue scale (VAS) of severity of itching, mean of the four subjects (after 4 to 24 hours from the administration, one capsule 10 μg/body, four patients with severe itching, VAS 75 mm before administration, scale 0 to 100 mm): 0 mm | relief of itching (after two hours from the administration, all administered patients (four), one capsule 10 μg/body): itching was relieved | antipruritic effect on administration (summary statement referring to Example 2) (as shown in Example 2): apparent antipruritic effect | duration of antipruritic effect (continued until) (time from the administration, all administered patients (four), one capsule 10 μg/body): 24 h
